Measured values from PubChem BioAssay (NCI).
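Test compounds were applied to cells in 96-well plates for 48 hours at 5 doses. The concentration for 50% growth inhibition is given as GI50. TGI marks complete inhibition of growth.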

Experiments:
Assay in all cases: NCI-60 cell line screen, 48 h
[1] = tested on: HT29 colon
[2] = tested on: MALME-3M melanoma
[3] = tested on: SNB-75 CNS
[4] = tested on: LOX IMVI melanoma
[5] = tested on: OVCAR-8 ovarian
[6] = tested on: U251 CNS
[7] = tested on: MDA-MB-435
[8] = tested on: SN12C renal
[9] = tested on: MOLT-4 leukemia
[10] = tested on: HS 578T breast
[11] = tested on: HOP-62 NSCLC
[12] = tested on: CCRF-CEM leukemia
[13] = tested on: SK-MEL-5 melanoma
[14] = tested on: NCI-H226 lung
[15] = tested on: CAKI-1 renal
[16] = tested on: SF-268 CNS
[17] = tested on: SF-295 CNS
[18] = tested on: SF-539 CNS
[19] = tested on: RXF 393 renal
[20] = tested on: EKVX NSCLC
[21] = tested on: DU-145 prostate
[22] = tested on: HCT-15 colon
[23] = tested on: SW-620 colon
[24] = tested on: SNB-19 CNS
[25] = tested on: NCI-H522 lung
[26] = tested on: ACHN renal
[27] = tested on: KM12 colon
[28] = tested on: T-47D breast
[29] = tested on: M14 melanoma
[30] = tested on: SK-OV-3 ovarian
[31] = tested on: K-562 leukemia
[32] = tested on: UO-31 renal
[33] = tested on: BT-549 breast
[34] = tested on: HOP-92 NSCLC
[35] = tested on: HCT-116 colon
[36] = tested on: A498 renal
[37] = tested on: SR leukemia
[38] = tested on: RPMI-8226 leukemia
[39] = tested on: OVCAR-4 ovarian
[40] = tested on: SK-MEL-28 melanoma
[41] = tested on: MCF7 breast
[42] = tested on: 786-0 renal
[43] = tested on: OVCAR-3 ovarian
[44] = tested on: SK-MEL-2 melanoma
[45] = tested on: NCI-H460 lung
[46] = tested on: HL-60(TB) leukemia
[47] = tested on: A549 NSCLC
[48] = tested on: UACC-257 melanoma
[49] = tested on: TK-10 renal
[50] = tested on: COLO 205 colon
[51] = tested on: NCI-H23 lung
[52] = tested on: IGROV1 ovarian
[53] = tested on: MDA-MB-231 breast
[54] = tested on: PC-3 prostate
[55] = tested on: HCC-2998 colon
[56] = tested on: OVCAR-5 ovarian
[57] = tested on: UACC-62 melanoma
[58] = tested on: NCI/ADR-RES ovarian

CCOC(=O)C1=C(C)N(c2ccc(Cl)cc2)[C@]2(C#N)C(O)=C(Cl)C(Cl)=C(O)[C@]12C#N
GI50 [1]: 51.9 µM | TGI [1]: > 100 µM | GI50 [2]: > 100 µM | TGI [2]: > 100 µM | GI50 [3]: 26.1 µM | TGI [3]: 83 µM | GI50 [4]: 4.95 µM | TGI [4]: > 100 µM | GI50 [5]: > 100 µM | TGI [5]: > 100 µM | GI50 [6]: > 100 µM | TGI [6]: > 100 µM | GI50 [7]: 44.8 µM | TGI [7]: > 100 µM | GI50 [8]: > 100 µM | TGI [8]: > 100 µM | GI50 [9]: > 100 µM | TGI [9]: > 100 µM | GI50 [10]: > 100 µM | TGI [10]: > 100 µM | GI50 [11]: > 100 µM | TGI [11]: > 100 µM | GI50 [12]: 25.6 µM | TGI [12]: 75.9 µM | GI50 [13]: > 100 µM | TGI [13]: > 100 µM | GI50 [14]: > 100 µM | TGI [14]: > 100 µM | GI50 [15]: 38 µM | TGI [15]: > 100 µM | GI50 [16]: > 100 µM | TGI [16]: > 100 µM | GI50 [17]: > 100 µM | TGI [17]: > 100 µM | GI50 [18]: 8.61 µM | TGI [18]: 96.8 µM | GI50 [19]: > 100 µM | TGI [19]: > 100 µM | GI50 [20]: 6.24 µM | TGI [20]: 43.2 µM | GI50 [21]: 0.339 µM | TGI [21]: 24.5 µM | GI50 [22]: 45.8 µM | TGI [22]: > 100 µM | GI50 [23]: 66.3 µM | TGI [23]: > 100 µM | GI50 [24]: > 100 µM | TGI [24]: > 100 µM | GI50 [25]: 56.5 µM | TGI [25]: > 100 µM | GI50 [26]: 31.6 µM | TGI [26]: > 100 µM | GI50 [27]: 47.9 µM | TGI [27]: > 100 µM | GI50 [28]: 16.9 µM | TGI [28]: 81 µM | GI50 [29]: 49.7 µM | TGI [29]: > 100 µM | GI50 [30]: 69.6 µM | TGI [30]: > 100 µM | GI50 [31]: 21.5 µM | TGI [31]: > 100 µM | GI50 [32]: 53.8 µM | TGI [32]: > 100 µM | GI50 [33]: 1.57 µM | TGI [33]: 33.4 µM | GI50 [34]: 78.2 µM | TGI [34]: > 100 µM | GI50 [35]: 90 µM | TGI [35]: > 100 µM | GI50 [36]: > 100 µM | TGI [36]: > 100 µM | GI50 [37]: 20.6 µM | TGI [37]: > 100 µM | GI50 [38]: 48.6 µM | TGI [38]: > 100 µM | GI50 [39]: > 100 µM | TGI [39]: > 100 µM | GI50 [40]: > 100 µM | TGI [40]: > 100 µM | GI50 [41]: > 100 µM | TGI [41]: > 100 µM | GI50 [42]: > 100 µM | TGI [42]: > 100 µM | GI50 [43]: 65 µM | TGI [43]: > 100 µM | GI50 [44]: > 100 µM | TGI [44]: > 100 µM | GI50 [45]: > 100 µM | TGI [45]: > 100 µM | GI50 [46]: 88.2 µM | TGI [46]: > 100 µM | GI50 [47]: > 100 µM | TGI [47]: > 100 µM | GI50 [48]: > 100 µM | TGI [48]: > 100 µM | GI50 [49]: 65.4 µM | TGI [49]: > 100 µM | GI50 [50]: 59.6 µM | TGI [50]: > 100 µM | GI50 [51]: > 100 µM | TGI [51]: > 100 µM | GI50 [52]: > 100 µM | TGI [52]: > 100 µM | GI50 [53]: 38.8 µM | TGI [53]: > 100 µM

CCN1CCC(C)OP1(=O)Cc1ccccc1 (stereo not drawn)
TGI [1]: > 100 µM | TGI [2]: > 100 µM | TGI [4]: > 100 µM | TGI [5]: > 100 µM | TGI [6]: > 100 µM | TGI [7]: > 100 µM | TGI [11]: > 100 µM | TGI [13]: > 100 µM | TGI [14]: > 100 µM | TGI [15]: > 100 µM | TGI [16]: > 100 µM | TGI [17]: > 100 µM | TGI [18]: > 100 µM | TGI [54]: > 100 µM | TGI [20]: > 100 µM | TGI [21]: > 100 µM | TGI [22]: > 100 µM | TGI [23]: > 100 µM | TGI [24]: > 100 µM | TGI [26]: > 100 µM | TGI [27]: > 100 µM | TGI [55]: > 100 µM | TGI [28]: > 100 µM | TGI [56]: > 100 µM | TGI [29]: > 100 µM | TGI [30]: > 100 µM | TGI [31]: > 100 µM | TGI [32]: > 100 µM | TGI [33]: > 100 µM | TGI [57]: > 100 µM | TGI [35]: > 100 µM | TGI [37]: > 100 µM | TGI [58]: > 100 µM | TGI [38]: > 100 µM | TGI [39]: > 100 µM | TGI [41]: > 100 µM | TGI [42]: > 100 µM | TGI [43]: > 100 µM | TGI [44]: > 100 µM | TGI [45]: > 100 µM | TGI [47]: > 100 µM | TGI [48]: > 100 µM | TGI [49]: > 100 µM | TGI [50]: > 100 µM | TGI [51]: > 100 µM | TGI [52]: > 100 µM | TGI [53]: > 100 µM
